Data on 34 compounds can be found in US6908919B2, “Substituted polycyclic aryl and heteroaryl pyrazinones useful for selective inhibition of the coagulation cascade” (Pharmacia Corporation, priority 1999, dated 2005).

Bounds are passed on as bounds.

The target in assay [1] is T1, recombinant soluble tissue factor and recombinant human factor VIIa (TF-VIIa) (Homo sapiens, UniProt P08709).
T1 construct: conversion of coagulation factor VII to VIIa by Xa; purchased American Diagnostica, Greenwich Conn; host or cells: VIIa purchased; soluble TF made in house in E. coli
T1 sequence (P08709 61-212 limits assumed): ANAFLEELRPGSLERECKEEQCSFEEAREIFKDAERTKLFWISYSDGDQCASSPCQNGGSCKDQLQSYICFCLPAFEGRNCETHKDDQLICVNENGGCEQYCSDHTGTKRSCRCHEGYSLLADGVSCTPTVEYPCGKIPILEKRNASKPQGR
T1 sequence (P08709 213-466 limits assumed): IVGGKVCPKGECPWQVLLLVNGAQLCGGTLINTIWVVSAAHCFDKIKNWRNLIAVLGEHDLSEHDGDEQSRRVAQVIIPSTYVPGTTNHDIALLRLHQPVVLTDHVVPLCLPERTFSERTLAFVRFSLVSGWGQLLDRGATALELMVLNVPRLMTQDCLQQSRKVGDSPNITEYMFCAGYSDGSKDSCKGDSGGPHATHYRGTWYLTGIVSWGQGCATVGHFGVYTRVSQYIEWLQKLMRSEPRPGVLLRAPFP
T1 sequence (P13726 33-251 partner limits assumed): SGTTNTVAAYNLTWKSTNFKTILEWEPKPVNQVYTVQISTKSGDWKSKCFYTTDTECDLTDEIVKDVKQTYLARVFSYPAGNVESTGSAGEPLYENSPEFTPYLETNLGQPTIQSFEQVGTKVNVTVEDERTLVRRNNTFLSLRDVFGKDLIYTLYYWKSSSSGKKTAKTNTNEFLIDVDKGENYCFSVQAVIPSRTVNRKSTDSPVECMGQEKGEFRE
Description: TF-VIIa Assay. The class given is biochemical. The following applies: for IC50: read-out: IC50 TF-VIIa; for inhibition at 30 µM: 1 h, at 30 µM inhibitor.

A further assay addresses Human factor Xa (Homo sapiens, UniProt P00742). As to the kind of experiment: Xa Assay. In kind it is biochemical. Also on record: purchased Enzyme Research Laboratories, South Bend Ind. Conditions: for % Inhibition Factor Xa (30 µM): at 30 µM inhibitor; for inhibition at 100 µM: at 100 μM inhibitor.
Assay [2] has as its target T2, Human thrombin (Homo sapiens, UniProt P00734).
Assay [3] has as its target T2, Human thrombin. As to the kind of experiment: biochemical. The following applies: for inhibition at 100 µM: read-out: % Inhibition Thrombin II at 100 μM.

Sequence of Human factor Xa (P00742 41-179 limits assumed): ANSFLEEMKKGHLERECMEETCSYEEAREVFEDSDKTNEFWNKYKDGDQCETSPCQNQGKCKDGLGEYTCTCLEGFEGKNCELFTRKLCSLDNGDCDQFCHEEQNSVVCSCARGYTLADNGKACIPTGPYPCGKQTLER
Sequence of Human factor Xa (P00742 235-488 limits assumed): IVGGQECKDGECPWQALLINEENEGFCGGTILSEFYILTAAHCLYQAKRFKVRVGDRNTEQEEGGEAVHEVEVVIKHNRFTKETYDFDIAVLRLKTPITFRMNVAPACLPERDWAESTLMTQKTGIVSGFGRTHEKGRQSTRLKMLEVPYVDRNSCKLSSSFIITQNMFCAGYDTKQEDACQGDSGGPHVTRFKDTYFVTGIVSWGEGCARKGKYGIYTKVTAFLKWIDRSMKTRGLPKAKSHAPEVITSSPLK

The term IC50 denotes the point on the concentration scale where inhibition reaches its midpoint. Consider `N=C(N)c1ccc(CNC(=O)Cn2c(-c3cc(N)cc(N)c3)cnc(NC3CCC3)c2=O)cc1` [Example 119], for which the IC50 in assay [1] was 10 nM. For the same compound, the “% Inhibition Factor Xa (30 µM)” value on Human factor Xa is 26%. On Human thrombin [2], the “% Inhibition Thrombin II (30 µM)” value stood at 45%.

For the compound `CN(C)CCNC(=N)c1ccc(CNC(=O)Cn2c(-c3cccc(N)c3)c(Cl)nc(NC3CCC3)c2=O)cc1` [Example 166], the IC50 in assay [1] was 63000 nM. Also, the “% Inhibition Factor Xa (30 µM)” value at Human factor Xa was 2%. On Human thrombin [2], the “% Inhibition Thrombin II (30 µM)” value was 5%.

Regarding `N=C(N)c1ccc(CNC(=O)Cn2c(-c3ccccc3N)cnc(NC3CCC3)c2=O)cc1` [Example 116], the IC50 in assay [1] was 1200 nM. Further, at Human factor Xa, the “% Inhibition Factor Xa (30 µM)” value is 12%. For the same compound, the “% Inhibition Thrombin II (30 µM)” value at Human thrombin [2] worked out at 27%.

On to `CN(C)CC/N=C(\NCCN(C)C)c1ccc(CNC(=O)Cn2c(-c3cccc(N)c3)c(Cl)nc(NC3CCC3)c2=O)cc1` [Example 165], for which the IC50 in assay [1] came to 63000 nM. Besides, the “% Inhibition Factor Xa (30 µM)” value on Human factor Xa came to 4%. At Human thrombin [2], the “% Inhibition Thrombin II (30 µM)” value is on record as 5%.

Regarding `N=C(NCc1ccccc1)c1ccc(CNC(=O)Cn2c(-c3cccc(N)c3)c(Cl)nc(NC3CCC3)c2=O)cc1` [Example 160], the IC50 in assay [1] stood at 18000 nM. Besides, the “% Inhibition Factor Xa (30 µM)” value on Human factor Xa is reported as 7%. The “% Inhibition Thrombin II (30 µM)” value on Human thrombin [2] was 9%.

In the case of `N=C(NC(=O)OCc1ccccc1)c1ccc(CNC(=O)Cn2c(-c3cccc(N)c3)c(Cl)nc(NC3CCC3)c2=O)cc1` [Example 151], the IC50 in assay [1] came to 230 nM. Also, at Human factor Xa, the “% Inhibition Factor Xa (30 µM)” value is given as 17%. Further, on Human thrombin [2], the “% Inhibition Thrombin II (30 µM)” value is 29%.

As for `N=C(N)c1ccc(CNC(=O)Cn2c(-c3cc(N)cc(C(=O)O)c3)cnc(NC3CCC3)c2=O)cc1` [Example 118], the values for the IC50 (in assay [1]; against Human factor Xa) were 52 nM and 52300 nM, respectively. Besides, the “% Inhibition Thrombin II (30 µM)” value at Human thrombin [2] came out at 3%.

For the compound `COC(=O)c1cc(N)cc(-c2c(Cl)nc(NC3CCC3)c(=O)n2CC(=O)NCc2ccc(C(=N)N)cc2)c1` [Example 127], the IC50 in assay [1] came out at 31 nM. For the same compound, on Human factor Xa, the “% Inhibition Factor Xa (30 µM)” value stood at 27%. Besides, the “% Inhibition Thrombin II (30 µM)” value on Human thrombin [2] turned out to be 23%.

In general, inhibition refers to the percentage by which the read-out fell short of the control. As to `CC(C)Nc1nc(Cl)c(-c2cccc(N)c2)n(CC(=O)Nc2ccc(S(=O)(=O)NC(=N)N)cc2)c1=O` [Example 155], the inhibition at 30 µM in assay [1] was 1%. Also, on Human factor Xa, the “% Inhibition Factor Xa (30 µM)” value was found to be 11%. The “% Inhibition Thrombin II (30 µM)” value at Human thrombin [2] was found to be 2%.

For the compound `CC(C)NC(=N)c1ccc(CNC(=O)Cn2c(-c3cccc(N)c3)c(Cl)nc(NC3CCC3)c2=O)cc1` [Example 161], the IC50 in assay [1] was 88400 nM. On Human thrombin [2], the “% Inhibition Thrombin II (30 µM)” value amounted to 7%.

As for `CC(C)Nc1ncc(-c2cc(N)cc(N)c2)n(CC(=O)NCc2ccc(C(=N)N)cc2)c1=O` [Example 121], the IC50 in assay [1] was 9.5 nM. Moreover, the inhibition at 83 µM on Human thrombin [3] (read-out: % Inhibition Thrombin II at 83 μM) worked out at 44%; against Human factor Xa (at 83 μM inhibitor) it was 23%.

As for `CC(C)Nc1nc(Cl)c(-c2cc(N)ccc2SCC(=O)O)n(CC(=O)NCc2ccc(C(=N)N)cc2)c1=O` [Example 110], the IC50 in assay [1] came out at 50 nM. In addition, at Human factor Xa, the “% Inhibition Factor Xa (30 µM)” value was 15%. The “% Inhibition Thrombin II (30 µM)” value at Human thrombin [2] turned out to be 20%.

For `N=C(N)c1ccc(NC(=O)Cn2c(-c3cccc(N)c3)c(Cl)nc(NC3CCC3)c2=O)cc1` [Example 141], in assay [1], the inhibition at 30 µM came to 2%. For the same compound, the inhibition at 100 µM on Human thrombin [3] came out at 11%; on Human factor Xa, 13%.

Regarding `C/N=C(/NC)c1ccc(CNC(=O)Cn2c(-c3cccc(N)c3)c(Cl)nc(NC3CCC3)c2=O)cc1` [Example 162], the inhibition at 30 µM in assay [1] was determined as 35%. Besides, the “% Inhibition Thrombin II (30 µM)” value on Human thrombin [2] came to 2%.

For `CC(C)Nc1nc(Cl)c(-c2cc(N)cc(C(=O)NC3CCC3)c2)n(CC(=O)NCc2ccc(C(=N)N)cc2)c1=O` [Example 128-15], the IC50 in assay [1] came to 6.6 nM; at Human thrombin [3], 13300 nM. The same compound had an inhibition at 100 µM against Human factor Xa of 32%.

Regarding `N=C(N)c1ccc(CNC(=O)Cn2c(-c3cc(N)nc(C(=O)O)c3)cnc(NC3CCC3)c2=O)cc1` [Example 120], the IC50 in assay [1] is 100 nM. The inhibition at 100 µM at Human thrombin [3] amounted to 47%; at Human factor Xa, 43%.

As to `COCC/N=C(\NCCOC)c1ccc(CNC(=O)Cn2c(-c3cccc(N)c3)c(Cl)nc(NC3CCC3)c2=O)cc1` [Example 164], the inhibition at 30 µM in assay [1] was determined as 24%. The “% Inhibition Factor Xa (30 µM)” value at Human factor Xa was 2%. Further, the “% Inhibition Thrombin II (30 µM)” value on Human thrombin [2] worked out at 5%.

As for `N/N=C(/N)c1ccc(CNC(=O)Cn2c(-c3cccc(N)c3)c(Cl)nc(NC3CCC3)c2=O)cc1` [Example 148], the IC50 in assay [1] came to 7030 nM. In addition, the inhibition at 100 µM was found to be 4% at Human thrombin [3] and 8% at Human factor Xa.

Turning to `CC(C)Nc1nc(Br)c(-c2cccc(N)c2)n(CC(=O)NCc2ccc(C(=N)N)cc2)c1=O` [Example 124], the IC50 in assay [1] worked out at 16 nM; against Human thrombin [3], 4680 nM. Also, the “% Inhibition Factor Xa (30 µM)” value at Human factor Xa was found to be 17%.

With `CC(C)Nc1nc(Cl)c(-c2cccc(N)c2)n(CC(=O)NCc2ccc(C(N)=S)cc2)c1=O` [Example 156], the inhibition at 30 µM in assay [1] is 27%. Further, on Human factor Xa, the “% Inhibition Factor Xa (30 µM)” value came out at 7%. Further, on Human thrombin [2], the “% Inhibition Thrombin II (30 µM)” value worked out at 5%.

Consider `CC(C)Nc1nc(Cl)c(-c2cc(N)cc(C(=O)NCc3cc(C(F)(F)F)cc(C(F)(F)F)c3)c2)n(CC(=O)NCc2ccc(C(=N)N)cc2)c1=O` [Example 128-6], for which the IC50 in assay [1] is 332 nM. Further, the results for the inhibition at 100 µM on Human thrombin [3] and at Human factor Xa were 40% and 29%, respectively.

In the case of `COC(=O)c1cc(N)cc(-c2cnc(NC3CCC3)c(=O)n2CC(=O)NCc2ccc(C(=N)N)cc2)c1` [Example 117], the concentration for half-maximal inhibition (IC50) in assay [1] was 33 nM. For the same compound, the “% Inhibition Factor Xa (30 µM)” value at Human factor Xa was 18%. Also, the “% Inhibition Thrombin II (30 µM)” value at Human thrombin [2] is reported as 21%.

Regarding `Nc1cccc(-c2c(Cl)nc(NC3CCC3)c(=O)n2CC(=O)NCc2ccc3c(N)nsc3c2)c1` [Example 145], the IC50 is 26800 nM in assay [1] and greater than 30000 nM against Human thrombin [3]. The “% Inhibition Factor Xa (30 µM)” value on Human factor Xa amounted to 3%.

In the case of `CC(C)Nc1nc(Cl)c(-c2cc(N)cc(C(=O)NC(C)(C)c3ccccc3)c2)n(CC(=O)NCc2ccc(C(=N)N)cc2)c1=O` [Example 128-4], the IC50 in assay [1] stood at 10.7 nM; at Human thrombin [3] it was 24000 nM. This compound also had an inhibition at 100 µM on Human factor Xa of 42%.

For the compound `CC(C)Nc1nc(Cl)c(-c2cc(N)cc(C(=O)NC3CCCC3)c2)n(CC(=O)NCc2ccc(C(=N)N)cc2)c1=O` [Example 128-16], the results for the IC50 (in assay [1]; on Human thrombin [3]) were 7 nM and 10200 nM, respectively. The compound also returned an inhibition at 100 µM against Human factor Xa of 36%.

Consider `COCCNC(=N)c1ccc(CNC(=O)Cn2c(-c3cccc(N)c3)c(Cl)nc(NC3CCC3)c2=O)cc1` [Example 163], for which, in assay [1], the IC50 was found to be 40000 nM. The “% Inhibition Thrombin II (30 µM)” value at Human thrombin [2] was 4%.

For `Nc1cccc(-c2c(Cl)nc(NC3CCC3)c(=O)n2CC(=O)NCc2ccc(-c3n[nH]c(=O)[nH]3)cc2)c1` [Example 153], the inhibition at 30 µM in assay [1] turned out to be 12%. The same compound had an IC50 on Human thrombin [3] greater than 30000 nM. Moreover, the “% Inhibition Factor Xa (30 µM)” value at Human factor Xa is given as 8%.

As to `N=C(N)c1ccc(CNC(=O)Cn2c(-c3cccc(C(=N)N)c3)c(Cl)nc(NC3CCC3)c2=O)cc1` [Example 114], the IC50 in assay [1] was determined as 380 nM; against Human thrombin [3] it was 4300 nM; against Human factor Xa, 6500 nM.

`CSc1ccc(N)cc1-c1c(Cl)nc(NC(C)C)c(=O)n1CC(=O)NCc1ccc(C(=N)N)cc1` [Example 111]: the results for the half-maximal inhibitory concentration (IC50) (in assay [1]; against Human thrombin [3]; on Human factor Xa) were 120 nM, greater than 30000 nM and greater than 30000 nM, respectively.

For `CC(C)Nc1nc(Cl)c(-c2cccc(N)c2)n(CC(=O)NCC2CCC(C(=N)N)C=N2)c1=O` (stereo not drawn) [Example 150], the IC50 in assay [1] worked out at 360 nM; at Human thrombin [3] it was 25000 nM. Besides, on Human factor Xa, the “% Inhibition Factor Xa (30 µM)” value was found to be 4%.

Turning to `Nc1ccc(CNC(=O)Cn2c(-c3cccc(N)c3)c(Cl)nc(NC3CCC3)c2=O)cc1` [Example 158], in assay [1], the inhibition at 30 µM was found to be 10%. Further, the IC50 against Human factor Xa was greater than 30000 nM. Moreover, the “% Inhibition Thrombin II (30 µM)” value at Human thrombin [2] is reported as 6%.

As for `CC(C)Nc1nc(Cl)c(-c2cc(N)cc(C(=O)NCc3ccccn3)c2)n(CC(=O)NCc2ccc(C(=N)N)cc2)c1=O` [Example 128-19], the IC50 in assay [1] turned out to be 26.1 nM. The figures for the inhibition at 100 µM on Human thrombin [3] and against Human factor Xa were 37% and 18%, respectively.

`CC(C)Nc1nc(Cl)c(-c2cc(N)cc(C(=O)NC3CCCCCC3)c2)n(CC(=O)NCc2ccc(C(=N)N)cc2)c1=O` [Example 128-17]: the IC50 in assay [1] worked out at 10.9 nM; on Human thrombin [3] it was 20200 nM. This compound registered an inhibition at 100 µM against Human factor Xa of 41%.

As to `N=C(N)c1ccc(Cc2cccc(-n3c(-c4cccc(N)c4)c(Cl)nc(NC4CCC4)c3=O)c2)cc1` [Example 138], the inhibition at 30 µM in assay [1] is 8%. The inhibition at 100 µM on Human thrombin [3] turned out to be 39%; at Human factor Xa it was 28%.
